We go through 25 compounds from the supplement of paper PMC5580409.

Each structure is given as a SMILES string. Bounds are passed on as bounds.

In the assay the test system is Plasmodium falciparum 3D7. Put plainly: pEC50, asexual blood-stage growth inhibition. As to conditions: 72 h. The method, then: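 Held-out test set measured in the Guy lab in 2014 with the same procedure as the primary St. Jude screen. P. falciparum 3D7 blood-stage culture (2% hematocrit, 1% parasitemia) was treated with compound for 72 h at 37 °C, and growth was read by SYBR Green I fluorescence. EC50 came from a four-parameter Hill fit over a 10-point dilution series […].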

In turn, `COc1ccc(OC)c(C2CC(=O)NC3=C2C(=O)CC(c2ccc(OC)c(OC)c2)C3)c1` (stereo not given) showed a negative-log EC50 (pEC50) below 4.82.
With `CCOc1cc(C2CC(=O)NC3=C2C(=O)CC(c2ccc(OC)c(OC)c2)C3)cc(Cl)c1O` (stereo not given), the negative logarithm of the EC50 (pEC50) stood at 6.68.
The compound `CCn1ncc(Cl)c1C(=O)Nc1ccc(C)c([N+](=O)[O-])c1` gave a negative logarithm of the EC50 (pEC50) below 4.82.
`CCN(CC)c1nc(Nc2ccc(O)cc2)nc(Nc2cc(C)ccc2C)n1` registered a pEC50 below 4.82.
With `Cc1ccc2c(c1)c1c3n2CCCN(Cc2ccccc2F)C3CCC1` (stereo not given) the figure was 5.01; with `COc1ccc(N2CCN(C(=O)c3ccc(C)cc3)CC2)c([N+](=O)[O-])c1`, 5.23; with `COc1ccc(CN2CCCn3c4c(c5cc(C)ccc53)CCCC42)cc1` (stereo not given), below 4.82.
In the case of `OC(CNCc1ccc(-c2ccccc2)cc1)c1ccccc1` (stereo not given), the pEC50 was below 4.82.
With `CC(C)c1ccc(/C=C/C(=O)Nc2ccc(F)cc2)cc1`, the pEC50 amounted to 5.21.
For the compound `C=CCN1C(=O)CS/C1=C\c1sc2ccccc2[n+]1CC`, the pEC50 stood at 5.31.
As for `Cc1ccccc1Cn1c(=N)n(CC(O)c2ccc(Cl)c(Cl)c2)c2ccccc21` (stereo not given), the figure is 6.39; as for `CCOc1cc(C2C(C(=O)OCC(C)C)=C(C)NC3=C2C(=O)CC(c2ccc(Cl)cc2)C3)ccc1O` (stereo not given), below 4.82.
With `OC(CNc1ccccc1)Cn1c2ccc(Cl)cc2c2cc(Cl)ccc21` (stereo not given) the figure was 5.36; with `COc1ccc(S(=O)(=O)N2CCC(CO)(Cc3ccccc3C(F)(F)F)CC2)cc1`, below 4.82; with `CCOc1cc2c(cc1OCC)C(c1ccc(O)cc1)NCC2` (stereo not given), below 4.82.
Turning to `CN1CCN([C@@H]2CCN(Cc3cc(Cl)ccc3O)C[C@H]2O)CC1`, the pEC50 was below 4.82.
`CCOC(=O)C1=C(C)NC2=C(C(=O)CC(c3ccc(OC)cc3)C2)C1c1cccc(F)c1` (stereo not given) returned a pEC50 of 6.13.
Regarding `CCOc1cc(C2C(C(=O)OCCOC)=C(C)NC3=C2C(=O)CC(c2ccc(Cl)cc2)C3)ccc1O` (stereo not given), the pEC50 stood at 5.52.
With `O=C(NCC1CCCCC1)c1cn(C2CC2)cc(C(=O)NC2CCN(Cc3ccccc3)C2)c1=O` (stereo not given) the figure was below 4.82.
With `CN1CCN(Cc2c(O)ccc3c(=O)c(-c4cccc5ccccc45)c(C(F)(F)F)oc23)CC1` the figure was below 4.82.
As to `O=C(Cc1cccc2ccccc12)Nc1ccc(-c2nc3ccccc3[nH]2)cc1`, the pEC50 is 5.57.
In turn, `CN1CCN(CC(O)Cn2c3ccccc3c3cc(Cl)ccc32)CC1` (stereo not given) registered a negative logarithm of the EC50 (pEC50) below 4.82.
With `CCOC(=O)C1=C(C)NC2=C(C(=O)CC(c3ccc(OC)cc3)C2)C1c1cc(Br)c(O)c(OC)c1` (stereo not given), the pEC50 worked out at 5.3.
`COc1ccc(C(O)Cn2c(=N)n(CCN3CCCCC3)c3ccccc32)cc1` (stereo not given): the pEC50 was below 4.82.
As for `Cc1cc(C)nc(Nc2ncc(O)n2-c2cccc(C(F)(F)F)c2)n1`, the pEC50 was below 4.82.
